Measurements from US20080213341A1, “Butyric Acid Esters of Carbohydrates and Carbohydrate Polyols” (priority 2005, published 2008).
Where two headings read alike, the source gives them in different places.

Columns and labels:
[1] = test system: intestinal bacteria of the human large intestine; experiment: In vitro fermentation with intestinal bacteria of the human large intestine (feces suspension); format: in vitro ADME; conditions: for x-fold increase in the butyrate concentration in the fermentation medium in comparison to the nonesterified carbohydrate or carbohydrate polyol: in vitro fermentation; for increase of the butyrate in the fermentation broths: after a short fermentation time; for butyrate release/formation (in words): in vitro fermentation with human intestinal bacteria
Procedure: It was investigated in in vitro fermentation experiments with intestinal bacteria of the human large intestine whether butyric acid esters listed above are hydrolyzed and metabolized by bacteria of the large intestine or their enzymes and butyrate is released in the […]. The following medium was used for in vitro fermentation experiments: [table] 9 ml of the […] medium described above were treated with 0.5% (w/v) of the butyric acid ester to be tested and 0.2% (w/v) of taurocholic acid. This medium was subsequently inoculated with 1 ml of a 10% strength feces suspension (mixed feces of three subjects) in anaerobic 50 mmol/l phosphate buffer, pH 7.0, to which 0.5 g/l of cysteine/HCl had been added as a reductant. Hungate tubes were incubated at 37° C. with shaking for 72 h, samples were taken at different times and these were investigated for short-chain fatty acids, lactic acid and pH. The extent of the metabolization of the test substances was carried out by means of the determination of the release of butyrate.

[2] = oral administration / uptake via food; cited from earlier work
colon cancer = conditions: orally administered; cited from earlier work
[3] = 0.5% (w/v) substrate, human feces suspension, 37° C., 72 h

For Octabutyrylisomalt, the “g of butyrate/g of substrate” value [1, 3] was 0.1 g of butyrate/g of substrate, the “g of butyrate/g of substrate” value ([1]; 0.5% (w/v) substrate, human feces suspension, 37° C., 72 h, listed as octabutyrylisomalt) was “about 0.1 g of butyrate/g of substrate” and the “x-fold increase in the butyrate concentration in the fermentation medium in comparison to the nonesterified carbohydrate or carbohydrate polyol” value (“x-fold increase” for short) ([1]; 72 h) was 0.5 x-fold.

With Heptabutyryldiacetylisomalt the “g of butyrate/g of substrate” value [1, 3] was 0.1 g of butyrate/g of substrate, the “g of butyrate/g of substrate” value ([1]; 0.5% (w/v) substrate, human feces suspension, 37° C., 72 h, listed as heptabutyryldiacetylisomalt) was “about 0.1 g of butyrate/g of substrate” and the “x-fold increase” value ([1]; 72 h) was 0.4 x-fold.

With Pentabutyrylisomalt the “g of butyrate/g of substrate” value [1, 3] was 0.2 g of butyrate/g of substrate and the “x-fold increase” value ([1]; 72 h) was 1.3 x-fold.

For `CCCC(=O)O` [butyrate, butyric acid], the “cleavage / absorption in the small intestine” value [2] is listed as “rapidly and completely absorbed in the small intestine”.

In the case of Tetrabutyrylsorbitol, the “g of butyrate/g of substrate” value [1, 3] is reported as 0.7 g of butyrate/g of substrate, the “increase of the butyrate in the fermentation broths” value [1] is reported as “strong increase” and the “butyrate release/formation (in words)” value [1] is reported as “high butyrate formation”. For the same compound, the “x-fold increase” value ([1]; 72 h) was 2.7 x-fold and the “x-fold increase” value ([1]; 72 h, listed as tetrabutyrylsorbitol) was “more than twofold”.

With Tributyrylsorbitol the “g of butyrate/g of substrate” value [1, 3] was 0.7 g of butyrate/g of substrate, the “increase of the butyrate in the fermentation broths” value [1] was “strong increase” and the “butyrate release/formation (in words)” value [1] was “high butyrate formation”. For the same compound, the “x-fold increase” value ([1]; 72 h) was 2.8 x-fold and the “x-fold increase” value ([1]; 72 h, listed as tributyrylsorbitol) was “more than twofold”.

With Tetrabutyryldiacetylsorbitol the “g of butyrate/g of substrate” value [1] was 0.3 g of butyrate/g of substrate.

In the case of Isomalt [reference compound], the “g of butyrate/g of substrate” value [1, 3] is reported as 0.2 g of butyrate/g of substrate and the “g of butyrate/g of substrate” value ([1]; 0.5% (w/v) substrate, human feces suspension, 37° C., 72 h, listed as isomalt) is reported as “approximately 0.2 g of butyrate/g of substrate”.

With Tributyrylxylitol the “g of butyrate/g of substrate” value [1, 3] was 0.6 g of butyrate/g of substrate, the “butyrate release/formation (in words)” value [1] was “Large amounts of butyrate were also released” and the “x-fold increase” value ([1]; 72 h) was 2.2 x-fold.

For `CCCC(=O)OCC(COC(=O)CCC)OC(=O)CCC` [tributyrin], the “activity in the prevention of colon cancer” value (colon cancer) is given as “inactive” and the “cleavage / absorption in the small intestine” value [2] is given as “rapidly cleaved in the anterior small intestine”.

For Tetrabutyrylxylitol, the “g of butyrate/g of substrate” value [1, 3] was 0.7 g of butyrate/g of substrate, the “butyrate release/formation (in words)” value [1] was “high butyrate formation” and the “x-fold increase” value ([1]; 72 h) was 2.5 x-fold. The “x-fold increase” value ([1]; 72 h, listed as tetrabutyrylxylitol) was “more than two-fold”.

With Pentabutyrylxylitol the “g of butyrate/g of substrate” value [1, 3] was 0.4 g of butyrate/g of substrate, the “butyrate release/formation (in words)” value [1] was “Large amounts of butyrate were also released” and the “x-fold increase” value ([1]; 72 h) was 1.5 x-fold.

In the case of Hexabutyrylsorbitol, the “g of butyrate/g of substrate” value [1, 3] is reported as 0.2 g of butyrate/g of substrate and the “x-fold increase” value ([1]; 72 h) is reported as 0.8 x-fold.
